In brackets after ≈: the same amount, converted by molar mass.
Key:
N. gonorrhoeae MS11 = experiment: Liquid broth MIC in Fastidious broth; details: Neisseria gonorrhoeae, MS11, read-out: Minimum Inhibitory Concentration (MIC), N. gonorrhoeae MS11
E. coli ATCC 25922 = experiment: microbe, parasite or virus in culture; format: cell-based; details: Escherichia coli, ATCC25922, read-out: MIC E. coli 25922
N. gonorrhoeae WHO G = experiment: Liquid broth MIC in Fastidious broth; details: Neisseria gonorrhoeae, read-out: Minimum Inhibitory Concentration (MIC), N. gonorrhoeae WHO G
K. pneumoniae UMM = experiment: microbe, parasite or virus in culture; format: cell-based; details: Klebsiella pneumoniae, read-out: MIC K. pneumoniae UMM
N. gonorrhoeae CDC-0197 = experiment: Liquid broth MIC in Fastidious broth; details: Neisseria gonorrhoeae, CDC0197, read-out: Minimum Inhibitory Concentration (MIC), N. gonorrhoeae CDC-0197
P. aeruginosa ATCC 27853 = experiment: microbe, parasite or virus in culture; format: cell-based; details: Pseudomonas aeruginosa, ATCC27853, read-out: MIC P. aeruginosa ATCC 27853
E. coli D22 = experiment: microbe, parasite or virus in culture; format: cell-based; details: Escherichia coli, D22, read-out: MIC E. coli D22
N. gonorrhoeae WHO K = experiment: Liquid broth MIC in Fastidious broth; details: Neisseria gonorrhoeae, read-out: Minimum Inhibitory Concentration (MIC), N. gonorrhoeae WHO K
[1] = target: T1, PBP2 from Neisseria gonorrhoeae (FA19) (Neisseria gonorrhoeae, UniProt P08149); experiment: Bocillin-FL fluorescence polarization competition binding, N. gonorrhoeae PBP2; details: fluorescence polarization competition binding assay using Bocillin-FL, read-out: N. gonorrhoeae PBP2 Potency
T1 construct: made in house
T1 sequence (P08149 whole entry): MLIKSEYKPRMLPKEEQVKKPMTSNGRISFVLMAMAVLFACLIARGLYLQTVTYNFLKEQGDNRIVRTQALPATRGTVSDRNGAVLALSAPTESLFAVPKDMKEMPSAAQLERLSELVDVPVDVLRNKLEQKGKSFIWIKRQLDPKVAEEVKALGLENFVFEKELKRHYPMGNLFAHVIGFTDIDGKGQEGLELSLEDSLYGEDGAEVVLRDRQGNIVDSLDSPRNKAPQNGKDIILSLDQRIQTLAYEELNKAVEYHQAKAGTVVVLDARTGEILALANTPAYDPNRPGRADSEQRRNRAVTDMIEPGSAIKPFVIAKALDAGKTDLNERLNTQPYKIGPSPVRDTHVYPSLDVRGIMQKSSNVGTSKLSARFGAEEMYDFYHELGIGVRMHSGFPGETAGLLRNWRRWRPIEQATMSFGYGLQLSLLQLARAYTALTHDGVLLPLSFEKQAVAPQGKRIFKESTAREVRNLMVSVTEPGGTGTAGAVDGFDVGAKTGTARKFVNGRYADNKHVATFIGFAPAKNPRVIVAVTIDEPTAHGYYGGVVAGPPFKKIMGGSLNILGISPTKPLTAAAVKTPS
Method in brief: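 Fluorescence polarization competition with 0.1 μM Bocillin-FL (fluorescent penicillin V) against 0.25 μM N. gonorrhoeae FA19 PBP2 in 50 mM Hepes pH 8.0, 300 mM NaCl, 10% glycerol. Boronic acid inhibitors were preincubated with PBP, then Bocillin-FL was added and FP read (490/520 nm) up to 60 min. EC50 is the concentration halving PBP-bound Bocillin-FL.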

Row | SMILES | MIC (N. gonorrhoeae MS11) [µg/mL] | MIC (E. coli ATCC 25922) [µg/mL] | MIC (N. gonorrhoeae WHO G) [µg/mL] | MIC (K. pneumoniae UMM) [µg/mL] | MIC (N. gonorrhoeae CDC-0197) [µg/mL] | MIC (P. aeruginosa ATCC 27853) [µg/mL] | MIC (E. coli D22) [µg/mL] | MIC (N. gonorrhoeae WHO K) [µg/mL] | EC50 [1] [µM]
1 | CCN1CCN(C(=O)NC(C(=O)N[C@H]2Cc3cccc(C(=O)O)c3OB2O)c2c(F)cc(P(=O)(O)O)cc2F)C(=O)C1=O (stereo partly drawn) [Example 25, (3R)-3-(2-(2,6-difluoro-4-phosphonophenyl)-2-(4-ethyl-2,3-dioxopiperazine-1-carboxamido)acetamido)-2-hydroxy-3,4-dihydro-2H-benzo[e][1,2]oxaborinine-8-carboxylic acid] | < 1 | > 128 | < 1 | 32 to 64 (≈ 51.3 to 103 µM) | < 1 | > 128 | 2 to 4 (≈ 3.2 to 6.41 µM) | 1 to 2 (≈ 1.6 to 3.2 µM) | < 10
2 | CC(=O)NC(C(=O)N[C@H]1Cc2cccc(C(=O)O)c2OB1O)c1ccc(P(=O)(O)O)cc1 (stereo partly drawn) [Example 26, (3R)-3-(2-acetamido-2-(4-phosphonophenyl)acetamido)-2-hydroxy-3,4-dihydro-2H-benzo[e][1,2]oxaborinine-8-carboxylic acid] | 16 to 32 (≈ 34.6 to 69.2 µM) | > 128 | 16 to 32 (≈ 34.6 to 69.2 µM) | > 128 | 16 to 32 (≈ 34.6 to 69.2 µM) | > 128 | 32 to 64 (≈ 69.2 to 138 µM) | 16 to 32 (≈ 34.6 to 69.2 µM) | 10 to 50
3 | CCC(=O)NC(C(=O)N[C@H]1Cc2cccc(C(=O)O)c2OB1O)c1ccc(P(=O)(O)O)cc1 (stereo partly drawn) [Example 27, (3R)-2-hydroxy-3-(2-(4-phosphonophenyl)-2-propionamidoacetamido)-3,4-dihydro-2H-benzo[e][1,2]oxaborinine-8-carboxylic acid] | 16 to 32 (≈ 33.6 to 67.2 µM) | > 128 | 4 to 8 (≈ 8.4 to 16.8 µM) | > 128 | 16 to 32 (≈ 33.6 to 67.2 µM) | > 128 | 32 to 64 (≈ 67.2 to 134 µM) | 16 to 32 (≈ 33.6 to 67.2 µM) | 10 to 50
4 | CC(C)C(=O)NC(C(=O)N[C@H]1Cc2cccc(C(=O)O)c2OB1O)c1ccc(P(=O)(O)O)cc1 (stereo partly drawn) [Example 28, (3R)-2-hydroxy-3-(2-isobutyramido-2-(4-phosphonophenyl)acetamido)-3,4-dihydro-2H-benzo[e][1,2]oxaborinine-8-carboxylic acid] | 16 to 32 (≈ 32.6 to 65.3 µM) | > 128 | 4 to 8 (≈ 8.16 to 16.3 µM) | > 128 | 16 to 32 (≈ 32.6 to 65.3 µM) | > 128 | 32 to 64 (≈ 65.3 to 131 µM) | 16 to 32 (≈ 32.6 to 65.3 µM) | < 10
5 | CC(C)(C)C(=O)NC(C(=O)N[C@H]1Cc2cccc(C(=O)O)c2OB1O)c1ccc(P(=O)(O)O)cc1 (stereo partly drawn) [Example 29, (3R)-2-hydroxy-3-(2-(4-phosphonophenyl)-2-pivalamidoacetamido)-3,4-dihydro-2H-benzo[e][1,2]oxaborinine-8-carboxylic acid] | 16 to 32 (≈ 31.7 to 63.5 µM) | > 128 | 16 to 32 (≈ 31.7 to 63.5 µM) | 32 to 64 (≈ 63.5 to 127 µM) | 16 to 32 (≈ 31.7 to 63.5 µM) | 32 to 64 (≈ 63.5 to 127 µM) | 8 to 16 (≈ 15.9 to 31.7 µM) | 16 to 32 (≈ 31.7 to 63.5 µM) | < 10
6 | O=C(O)c1cccc2c1OB(O)[C@@H](NC(=O)C(NC(=O)C1CC1)c1ccc(P(=O)(O)O)cc1)C2 (stereo partly drawn) [Example 30, (3R)-3-(2-(cyclopropanecarboxamido)-2-(4-phosphonophenyl)acetamido)-2-hydroxy-3,4-dihydro-2H-benzo[e][1,2]oxaborinine-8-carboxylic acid] | 16 to 32 (≈ 32.8 to 65.5 µM) | > 128 | 4 to 8 (≈ 8.19 to 16.4 µM) | > 128 | 16 to 32 (≈ 32.8 to 65.5 µM) | > 128 | 8 to 16 (≈ 16.4 to 32.8 µM) | 16 to 32 (≈ 32.8 to 65.5 µM) | < 10
7 | O=C(O)c1cccc2c1OB(O)[C@@H](NC(=O)C(NC(=O)C1CCCCC1)c1ccc(P(=O)(O)O)cc1)C2 (stereo partly drawn) [Example 31, (3R)-3-(2-(cyclohexanecarboxamido)-2-(4-phosphonophenyl)acetamido)-2-hydroxy-3,4-dihydro-2H-benzo[e][1,2]oxaborinine-8-carboxylic acid] | 16 to 32 (≈ 30.2 to 60.3 µM) | > 128 | 16 to 32 (≈ 30.2 to 60.3 µM) | > 128 | 16 to 32 (≈ 30.2 to 60.3 µM) | > 128 | 32 to 64 (≈ 60.3 to 121 µM) | 16 to 32 (≈ 30.2 to 60.3 µM) | < 10
8 | O=C(NC(C(=O)N[C@H]1Cc2cccc(C(=O)O)c2OB1O)c1ccc(P(=O)(O)O)cc1)c1ccccn1 (stereo partly drawn) [Example 32, (3R)-2-hydroxy-3-(2-(4-phosphonophenyl)-2-(picolinamido)acetamido)-3,4-dihydro-2H-benzo[e][1,2]oxaborinine-8-carboxylic acid] | 1 to 2 (≈ 1.9 to 3.81 µM) | > 128 | < 1 | > 128 | 1 to 2 (≈ 1.9 to 3.81 µM) | > 128 | 8 to 16 (≈ 15.2 to 30.5 µM) | 4 to 8 (≈ 7.62 to 15.2 µM) | < 10
9 | CC(=O)N1CCC[C@@H]1C(=O)N[C@H](C(=O)N[C@H]1Cc2cccc(C(=O)O)c2OB1O)c1ccc(P(=O)(O)O)cc1 [Example 33, (3R)-3-(2-((R)-1-acetylpyrrolidine-2-carboxamido)-2-(4-phosphonophenyl)acetamido)-2-hydroxy-3,4-dihydro-2H-benzo[e][1,2]oxaborinine-8-carboxylic acid] | 16 to 32 (≈ 28.6 to 57.2 µM) | > 128 | 16 to 32 (≈ 28.6 to 57.2 µM) | > 128 | 16 to 32 (≈ 28.6 to 57.2 µM) | > 128 | 32 to 64 (≈ 57.2 to 114 µM) | 16 to 32 (≈ 28.6 to 57.2 µM) | < 10
10 | CS(=O)(=O)N1CCC[C@@H]1C(=O)N[C@H](C(=O)N[C@H]1Cc2cccc(C(=O)O)c2OB1O)c1ccc(P(=O)(O)O)cc1 [Example 34, (R)-2-hydroxy-3-((S)-2-((R)-1-(methylsulfonyl)pyrrolidine-2-carboxamido)-2-(4-phosphonophenyl)acetamido)-3,4-dihydro-2H-benzo[e][1,2]oxaborinine-8-carboxylic acid] | 16 to 32 (≈ 26.9 to 53.8 µM) | > 128 | 4 to 8 (≈ 6.72 to 13.4 µM) | > 128 | 16 to 32 (≈ 26.9 to 53.8 µM) | > 128 | 32 to 64 (≈ 53.8 to 108 µM) | 16 to 32 (≈ 26.9 to 53.8 µM) | 50 to 250
11 | CS(=O)(=O)N1CCC[C@@H]1C(=O)N[C@@H](C(=O)N[C@H]1Cc2cccc(C(=O)O)c2OB1O)c1ccc(P(=O)(O)O)cc1 [Example 35, (R)-2-hydroxy-3-((R)-2-((R)-1-(methylsulfonyl)pyrrolidine-2-carboxamido)-2-(4-phosphonophenyl)acetamido)-3,4-dihydro-2H-benzo[e][1,2]oxaborinine-8-carboxylic acid] | 1 to 2 (≈ 1.68 to 3.36 µM) | > 128 | 1 to 2 (≈ 1.68 to 3.36 µM) | > 128 | 4 to 8 (≈ 6.72 to 13.4 µM) | > 128 | 8 to 16 (≈ 13.4 to 26.9 µM) | 4 to 8 (≈ 6.72 to 13.4 µM) | < 10
12 | O=C(O)c1cccc2c1OB(O)[C@@H](NC(=O)[C@@H](NC(=O)N1CCCCC1=O)c1ccc(P(=O)(O)O)cc1)C2 [Example 36, (R)-2-hydroxy-3-((S)-2-(2-oxopiperidine-1-carboxamido)-2-(4-phosphonophenyl)acetamido)-3,4-dihydro-2H-benzo[39e][1,2]oxaborinine-8-carboxylic acid] | 16 to 32 (≈ 29.3 to 58.7 µM) | > 128 | 4 to 8 (≈ 7.34 to 14.7 µM) | > 128 | 16 to 32 (≈ 29.3 to 58.7 µM) | > 128 | 32 to 64 (≈ 58.7 to 117 µM) | 16 to 32 (≈ 29.3 to 58.7 µM) | 10 to 50
13 | O=C(O)c1cccc2c1OB(O)[C@@H](NC(=O)[C@H](NC(=O)N1CCCCC1=O)c1ccc(P(=O)(O)O)cc1)C2 [Example 37, (R)-2-hydroxy-3-((R)-2-(2-oxopiperidine-1-carboxamido)-2-(4-phosphonophenyl)acetamido)-3,4-dihydro-2H-benzo[e][1,2]oxaborinine-8-carboxylic acid] | 1 to 2 (≈ 1.83 to 3.67 µM) | > 128 | < 1 | > 128 | 1 to 2 (≈ 1.83 to 3.67 µM) | > 128 | 8 to 16 (≈ 14.7 to 29.3 µM) | 4 to 8 (≈ 7.34 to 14.7 µM) | < 10
14 | CN1CCCN(C(=O)NC(C(=O)N[C@H]2Cc3cccc(C(=O)O)c3OB2O)c2ccc(P(=O)(O)O)cc2)C1=O (stereo partly drawn) [Example 38, (3R)-2-hydroxy-3-(2-(3-methyl-2-oxohexahydropyrimidine-1-carboxamido)-2-(4-phosphonophenyl)acetamido)-3,4-dihydro-2H-benzo[e][1,2]oxaborinine-8-carboxylic acid] | 1 to 2 (≈ 1.78 to 3.57 µM) | > 128 | < 1 | > 128 | 1 to 2 (≈ 1.78 to 3.57 µM) | > 128 | 8 to 16 (≈ 14.3 to 28.6 µM) | 4 to 8 (≈ 7.14 to 14.3 µM) | < 10
15 | O=C(O)c1cccc2c1OB(O)[C@@H](NC(=O)[C@@H](NC(=O)N1CCNC1=O)c1ccc(P(=O)(O)O)cc1)C2 [Example 39, (R)-2-hydroxy-3-((S)-2-(2-oxoimidazolidine-1-carboxamido)-2-(4-phosphonophenyl)acetamido)-3,4-dihydro-2H-benzo[e][1,2]oxaborinine-8-carboxylic acid] | 1 to 2 (≈ 1.88 to 3.76 µM) | > 128 | < 1 | > 128 | 1 to 2 (≈ 1.88 to 3.76 µM) | > 128 | 32 to 64 (≈ 60.1 to 120 µM) | 16 to 32 (≈ 30.1 to 60.1 µM) | 10 to 50

Reference: patent publication US20240270762A1, “PENICILLIN-BINDING PROTEIN INHIBITORS” (priority 2021, published 2024)
